Measurements: ChEMBL document CHEMBL4673226, “Development of 5-Aminopyrazole-4-carboxamide-based Bumped-Kinase Inhibitors for Cryptosporidiosis Therapy” (J Med Chem, 2019)
pEC50, pIC50: −log10 of the molar value. ≈ marks a conversion by molar mass, not a printed value. Calls of active or inactive are those of the source. The calls are words filed in the database; no cut-off is given here.

What was measured:
[1] = Inhibition of Cryptosporidium parvum CDPK1 assessed as reduction in ATP consumption using BioSyntide-2 substrate incubated for 90 mins by luciferase reporter gene assay
HepG2 = assay: Toxicity in human HepG2 cells; type: cell-based
[2] = biological target: Proto-oncogene tyrosine-protein kinase Src (Homo sapiens, UniProt P12931); assay: Inhibition of SRC (unknown origin); type: ADME
Sequence of Proto-oncogene tyrosine-protein kinase Src (P12931 2-536 limits assumed): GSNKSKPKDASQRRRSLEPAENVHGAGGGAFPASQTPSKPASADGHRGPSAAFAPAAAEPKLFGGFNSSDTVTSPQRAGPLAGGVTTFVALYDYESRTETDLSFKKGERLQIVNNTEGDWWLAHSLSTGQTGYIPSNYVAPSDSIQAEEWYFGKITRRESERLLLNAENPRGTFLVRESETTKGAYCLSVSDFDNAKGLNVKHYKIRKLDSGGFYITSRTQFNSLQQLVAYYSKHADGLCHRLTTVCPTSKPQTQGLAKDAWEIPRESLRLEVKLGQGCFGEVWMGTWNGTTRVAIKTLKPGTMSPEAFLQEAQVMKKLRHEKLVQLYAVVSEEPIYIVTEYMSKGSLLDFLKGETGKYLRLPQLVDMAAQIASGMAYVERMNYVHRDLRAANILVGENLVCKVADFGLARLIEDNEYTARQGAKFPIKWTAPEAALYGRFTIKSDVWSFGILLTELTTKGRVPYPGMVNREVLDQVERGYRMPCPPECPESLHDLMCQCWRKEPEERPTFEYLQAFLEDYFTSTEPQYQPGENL

[3] = Solubility in pH 2.0 solution
[4] = Solubility in pH 6.5 solution
[5] = Toxicity in human CRL-8155 cells; type: cell-based
[6] = AUC in mouse at 25 mg/kg, po; type: ADME, organism-based; set-up: dose 25 mg/kg; settings: in vivo
[7] = Clearance in mouse at 25 mg/kg, po; type: ADME, organism-based; settings: in vivo
[8] = Drug level in mouse fecus at 25 mg/kg, po; settings: read-out: Drug uptake, in vivo
[9] = Protein binding in human plasma by dialysis method
Cryptosporidium parvum [10] = assay: Antimicrobial activity against nano-luciferase-expressing Cryptosporidium parvum infected in IFN-gamma KO B6.129S7-Ifngtm1Ts/J mouse assessed as log reduction of infection at 25 mg/kg, po QD for 5 days beginning on day 6 post infection relative untreated control; type: functional; settings: time 5 day
[11] = Protein binding in mouse plasma by dialysis method
Cryptosporidium parvum [12] = assay: Antimicrobial activity against nano-luciferase-expressing Cryptosporidium parvum infected in IFN-gamma KO B6.129S7-Ifngtm1Ts/J mouse assessed as log reduction of infection at 60 mg/kg, po QD for 5 days beginning on day 6 post infection relative untreated control; settings: time 5 day
[13] = Clearance in mouse at 10 mg/kg, po; type: ADME, organism-based; settings: in vivo
[14] = AUC in mouse at 10 mg/kg, po; type: ADME, organism-based; set-up: dose 10 mg/kg; settings: in vivo
in vivo [15] = settings: mouse, po, 25 mg/kg
in vivo [16] = settings: mouse, po, 25 mg/kg; remark: listed apart in the source
Cryptosporidium parvum [17] = assay: Antimicrobial activity against nano-luciferase-expressing Cryptosporidium parvum infected in human HCT8 cells incubated for 72 hrs by luciferase reporter gene assay; type: functional, organism-based; settings: HCT-8, 72 h
[18] = biological target: Voltage-gated inwardly rectifying potassium channel KCNH2 (Homo sapiens, UniProt Q12809); assay: Inhibition of human ERG by thallium flux assay
Sequence of Voltage-gated inwardly rectifying potassium channel KCNH2 (Q12809 whole entry): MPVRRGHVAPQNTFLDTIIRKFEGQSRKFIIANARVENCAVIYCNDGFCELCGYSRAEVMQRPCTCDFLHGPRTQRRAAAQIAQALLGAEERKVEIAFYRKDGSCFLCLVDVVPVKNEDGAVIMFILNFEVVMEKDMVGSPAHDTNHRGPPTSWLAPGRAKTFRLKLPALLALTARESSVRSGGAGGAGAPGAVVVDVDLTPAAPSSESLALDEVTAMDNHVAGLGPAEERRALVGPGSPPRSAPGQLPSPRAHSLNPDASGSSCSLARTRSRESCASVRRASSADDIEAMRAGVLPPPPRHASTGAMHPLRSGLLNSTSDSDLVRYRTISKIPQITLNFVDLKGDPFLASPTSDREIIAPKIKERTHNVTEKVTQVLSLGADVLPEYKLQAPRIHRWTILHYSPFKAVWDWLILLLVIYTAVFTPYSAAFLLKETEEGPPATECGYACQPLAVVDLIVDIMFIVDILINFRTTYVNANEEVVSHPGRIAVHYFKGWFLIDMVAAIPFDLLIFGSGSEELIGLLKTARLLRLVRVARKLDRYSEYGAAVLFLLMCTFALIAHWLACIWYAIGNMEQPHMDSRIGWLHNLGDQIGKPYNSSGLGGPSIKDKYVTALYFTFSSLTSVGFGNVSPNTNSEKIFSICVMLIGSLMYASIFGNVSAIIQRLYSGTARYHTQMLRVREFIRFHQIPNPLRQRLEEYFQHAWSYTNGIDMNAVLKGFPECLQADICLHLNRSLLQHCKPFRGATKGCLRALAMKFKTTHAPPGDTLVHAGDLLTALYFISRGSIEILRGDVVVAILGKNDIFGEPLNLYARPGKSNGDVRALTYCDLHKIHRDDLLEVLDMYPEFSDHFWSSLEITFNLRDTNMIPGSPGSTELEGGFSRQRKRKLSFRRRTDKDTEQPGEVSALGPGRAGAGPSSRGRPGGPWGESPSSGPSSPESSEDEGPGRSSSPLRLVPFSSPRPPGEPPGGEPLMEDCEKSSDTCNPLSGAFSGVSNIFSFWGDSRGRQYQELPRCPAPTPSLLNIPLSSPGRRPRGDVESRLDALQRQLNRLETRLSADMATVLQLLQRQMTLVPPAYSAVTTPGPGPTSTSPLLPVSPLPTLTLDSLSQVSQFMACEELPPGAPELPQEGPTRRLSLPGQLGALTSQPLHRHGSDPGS

[19] = Half life in mouse at 25 mg/kg, po; settings: in vivo
Cryptosporidium parvum [20] = assay: Antimicrobial activity against nano-luciferase-expressing Cryptosporidium parvum infected in IFN-gamma KO B6.129S7-Ifngtm1Ts/J mouse assessed as log reduction of infection at 30 mg/kg, po BID for 5 days beginning on day 6 post infection relative untreated control; type: functional, organism-based; settings: time 5.0 day

Row | SMILES | pIC50 [1] | Activity (HepG2) | pIC50 [2] | solubility ([3]; buffer) | solubility ([4]; buffer) | Activity [5] | AUC [6] | CL/F [7] | concentration [8] | also measured
1 | CCOc1ccc2cc(-c3nn(C(C)(C)CCO)c(N)c3C(N)=O)cnc2c1 | 8.24 | Non-Toxic | 5.60 | 87.9 µM (≈ 33.7 µg/mL) | > 100 µM | Non-Toxic | – | – | – | –
2 | CCOc1ccc2cc(-c3nn(CC4CC4)c(N)c3C(N)=O)ccc2c1 | 10.52 | Non-Toxic | 5.00 | – | – | Non-Toxic | 2800.8 µmol·min/L | 0.5 mL/min | 54 µM | PPB [9]: 95%; log reduction (Cryptosporidium parvum [10]): 0.76; PPB [11]: 97%
3 | CCOc1ccc2cc(-c3nn(C(C)CCO)c(N)c3C(N)=O)cnc2c1 (configuration not stated) | – | Non-Toxic | 5.46 | 78 µM (≈ 28.8 µg/mL) | > 100 µM | Non-Toxic | – | – | 1.1 µM | FC (Cryptosporidium parvum [12]): 3.41; PPB [9]: 84%; CL/F [13]: 1.9 mL/min; AUC [14]: 339 µmol·min/L; PPB [11]: 86%
4 | CC(C)(CCO)n1nc(-c2ccc3nc(OC4CC4)ccc3c2)c(C(N)=O)c1N | 8.64 | Non-Toxic | < 5.00 | 96 µM (≈ 38 µg/mL) | > 100 µM | Non-Toxic | 193.6 µmol·min/L | 6.7 mL/min | – | –
5 | CC(C)(CCO)n1nc(-c2cnc3cc(OC4CC4)ccc3c2)c(C(N)=O)c1N | 8.52 | Non-Toxic | < 5.00 | 88.8 µM (≈ 35.1 µg/mL) | – | Non-Toxic | – | – | – | –
6 | CC(CCO)n1nc(-c2cnc3cc(OC4CC4)ccc3c2)c(C(N)=O)c1N (configuration not stated) | 8.70 | Non-Toxic | < 5.00 | – | – | Non-Toxic | 11769 µmol·min/L | 0.1 mL/min | 4.5 µM | Tmax (in vivo [15]): 0.5 h; Cmax (in vivo [16]): 69.2 µM; pEC50 (Cryptosporidium parvum [17]): 6.37; solubility ([3]; pH 2.0 solution): > 100 µM; fraction unbound [9]: 0.49; solubility ([4]; pH 6.5 solution): > 100 µM; pIC50 [18]: < 4.52; half-life [19]: 2.05 h
7 | CCOc1ccc2cc(-c3nn(CC(C)(C)CO)c(N)c3C(N)=O)cnc2c1 | – | Non-Toxic | < 5.00 | – | > 100 µM | Non-Toxic | – | – | – | –
8 | CC(C)(CO)Cn1nc(-c2ccc3nc(OC4CC4)ccc3c2)c(C(N)=O)c1N | – | Non-Toxic | – | – | – | Non-Toxic | – | – | – | –
9 | CCOc1ccc2cc(-c3nn(CC(C)(C)CO)c(N)c3C(N)=O)ccc2n1 | – | Non-Toxic | – | – | – | Non-Toxic | – | – | – | CL/F [13]: 5.1 mL/min; AUC [14]: 140.2 µmol·min/L
10 | C#CCOc1ccc2cc(-c3nn(C(C)(C)C)c(N)c3C(N)=O)ccc2c1 | – | Non-Toxic | – | – | – | Non-Toxic | – | – | – | –
11 | CC(C)(CO)n1nc(-c2cnc3cc(OC4CC4)ccc3c2)c(C(N)=O)c1N | 8.72 | Non-Toxic | < 5.00 | 89 µM (≈ 33.9 µg/mL) | 44.2 µM (≈ 16.9 µg/mL) | Non-Toxic | – | – | – | –
12 | CCOc1ccc2cc(-c3nn(C(C)CCO)c(N)c3C(N)=O)ccc2n1 (configuration not stated) | – | Non-Toxic | – | – | – | Non-Toxic | – | – | – | –
13 | CCOc1ccc2cc(-c3nn(CC(C)(C)CO)c(N)c3C(N)=O)ccc2c1 | 8.18 | Non-Toxic | 5.20 | > 100 µM | 20.6 µM (≈ 7.88 µg/mL) | Non-Toxic | 621.1 µmol·min/L | 2.1 mL/min | 7.6 µM | FC (Cryptosporidium parvum [12]): -0.03; PPB [9]: 94%; PPB [11]: 92%
14 | CCOc1ccc2cc(-c3nn(C(C)(C)CO)c(N)c3C(N)=O)ccc2c1 | 8.05 | Non-Toxic | < 5.00 | 18.8 µM (≈ 6.93 µg/mL) | 8 µM (≈ 2.95 µg/mL) | Non-Toxic | 9365 µmol·min/L | 0.2 mL/min | 7.1 µM | log reduction (Cryptosporidium parvum [10]): 0.81
15 | CC(C)(CO)Cn1nc(-c2cnc3cc(OC4CC4)ccc3c2)c(C(N)=O)c1N | 10.00 | Non-Toxic | < 5.00 | > 100 µM | > 100 µM | Non-Toxic | – | – | – | –
16 | CCOc1ccc2cc(-c3nn(C(C)(C)CO)c(N)c3C(N)=O)cnc2c1 | 8.39 | Non-Toxic | 5.33 | > 50 µM | > 50 µM | Non-Toxic | 50798.1 µmol·min/L | 1 mL/min | 2.9 µM | –
17 | CC(C)(CO)n1nc(-c2ccc3nc(OC4CC4)ccc3c2)c(C(N)=O)c1N | – | Non-Toxic | – | – | – | Non-Toxic | – | – | – | –
18 | CC(C)(CCO)n1nc(-c2ccc3cc(OC4CC4)ccc3c2)c(C(N)=O)c1N | 8.42 | Non-Toxic | < 5.00 | > 100 µM | – | Non-Toxic | 483.2 µmol·min/L | 1 mL/min | – | –
19 | CC(CCO)n1nc(-c2ccc3nc(OC4CC4)ccc3c2)c(C(N)=O)c1N (configuration not stated) | 8.23 | Non-Toxic | < 5.00 | – | – | Non-Toxic | 1154.1 µmol·min/L | 0.7 mL/min | – | Tmax (in vivo [15]): 0.667 h; Cmax (in vivo [16]): 8.5 µM; pEC50 (Cryptosporidium parvum [17]): 6.22; solubility ([3]; pH 2.0 solution): > 100 µM; solubility ([4]; pH 6.5 solution): 98 µM (≈ 37.4 µg/mL); pIC50 [18]: < 4.52; half-life [19]: 1.42 h; fraction unbound [11]: 0.23
20 | CC(C)(CO)n1nc(-c2ccc3cc(OC4CC4)ccc3c2)c(C(N)=O)c1N | 8.16 | Non-Toxic | < 5.00 | 89 µM (≈ 33.9 µg/mL) | 92.9 µM (≈ 35.3 µg/mL) | Non-Toxic | 41782 µmol·min/L | 0.3 mL/min | 3.5 µM | FC (Cryptosporidium parvum [12]): 4.47; PPB [11]: 80%
21 | CCOc1ccc2cc(-c3nn(C(C)(C)CCO)c(N)c3C(N)=O)ccc2n1 | – | Non-Toxic | – | – | – | Non-Toxic | – | – | – | –
22 | CC(CCO)n1nc(-c2ccc3cc(OC4CC4)ccc3c2)c(C(N)=O)c1N (configuration not stated) | 8.22 | Non-Toxic | < 5.00 | > 100 µM | > 100 µM | Non-Toxic | 4332.8 µmol·min/L | 0.3 mL/min | 10.3 µM | FC (Cryptosporidium parvum [12]): 4.78; PPB [9]: 95%; PPB [11]: 95%
23 | CCOc1ccc2cc(-c3nn(C(C)CCO)c(N)c3C(N)=O)ccc2c1 (configuration not stated) | 8.70 | Non-Toxic | 5.00 | > 100 µM | 56.7 µM (≈ 20.9 µg/mL) | Non-Toxic | 1738 µmol·min/L | 0.8 mL/min | – | FC (Cryptosporidium parvum [12]): 2.62; PPB [9]: 88%; PPB [11]: 71%; Activity (Cryptosporidium parvum [20]): Active
